# In PMC9636949 (Proceedings of the National Academy of Sciences of the …, 2022):
# Assays:
# [1] = biological target: T1, human α7-AChR (Homo sapiens, UniProt P36544); assay type: binding; details: read-out: Unlabeled-ligand half-competition concentration; pH 7.4
# [2] = biological target: T1, human α7-AChR; details: pH 7.4; cited from earlier work
# T1 sequence (P36544 23-502): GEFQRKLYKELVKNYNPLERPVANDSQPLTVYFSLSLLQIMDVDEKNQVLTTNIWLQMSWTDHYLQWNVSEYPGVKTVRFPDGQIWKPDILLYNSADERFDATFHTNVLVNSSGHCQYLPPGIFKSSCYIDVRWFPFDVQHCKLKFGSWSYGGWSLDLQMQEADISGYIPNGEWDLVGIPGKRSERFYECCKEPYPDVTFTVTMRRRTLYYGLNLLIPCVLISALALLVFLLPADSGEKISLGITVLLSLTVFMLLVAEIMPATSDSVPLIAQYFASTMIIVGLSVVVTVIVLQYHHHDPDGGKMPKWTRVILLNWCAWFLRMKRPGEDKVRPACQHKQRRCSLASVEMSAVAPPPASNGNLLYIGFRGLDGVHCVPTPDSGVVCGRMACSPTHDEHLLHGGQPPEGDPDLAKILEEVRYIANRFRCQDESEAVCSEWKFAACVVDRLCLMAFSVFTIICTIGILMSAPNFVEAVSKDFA
Compound,IC50 [1],Unlabeled-ligand nH (Hill coefficient) [2]
CC[N+](C)(C)C [ETMA],15.6 ± 1.09 µM,–
"C[N+](C)(C)CCO [Choline, choline]",–,1.28 ± 0.08
"CN1CCC[C@H]1c1cccnc1 [Nicotine, nicotine]",–,1.41 ± 0.06
"C[N+](C)(C)C [TMA, tetramethylammonium]",11.4 ± 1.33 µM,–
